From paper PMC7925398, “Exploring the Therapeutic Potenital of the Leaderless Enterocins K1 and EJ97 in the Treatment of Vancomycin-Resistant Enterococcal Infection” (Frontiers in Microbiology, 2021) come the findings set out here.

Where two headings read alike, the source gives them in different places. Where no end group is shown, it is not given here.

Series [1] deals with bacteriocin-resistant enterococcal cells (eep-mutants). The settings on record: colonies from inhibition zones of spot-on-lawn assay; 'mostly above'; cross-resistant. The method, then:
Bacteriocin resistant mutants were obtained by a spot-on-lawn assay, where liquid bacteriocin was spotted on a lawn of indicator cells, using 10μl of bacteriocin in concentrations 0.5–5 mg/ml. The plates were incubated at 30°C overnight and resistant colonies were selected from the inhibition zones and re-streaked on new plates for isolated colonies. Pure cultures were made and stored in 15% glycerol at −80°C. The eep gene was PCR amplified and sequenced with specific primers: eep in E. faecium was amplified using primers Eepf4F + Eepf4R and sequenced using primers Eepf1R - Eepf6R and Eepf1F - Eepf6F. eep in E. faecalis was amplified using primers Eepfa1R + Eepfa3F and sequenced using primers Eepfa1R - Eepfa3R, Eepf1R - Eepf3R and Eepfa1F - Eepfa3F.
The samples were sent to GATC Biotech, Germany for sequencing. MIC of the resistant mutants was scored using a microtiter assay as previously described ([Holo et al., 1991]).

A short description of series [2]: Antibacterial effect (MIC) after incubation in blood, plasma or saline. It counts as cell-based. Here is the method: To test whether the antibacterial effect of the bacteriocins was reduced in blood, an assay was performed where whole blood was collected from two healthy volunteers, with EDTA as an anticoagulant. Directly after blood sampling each bacteriocin was added to a concentration of 1mg/ml. […] Samples were collected at specific time points and bacteriocin activity was determined using the standard MIC assay as previously described ([Holo et al., 1991]). The experiment was repeated three times and the error bars represent the standard deviation.
The presented MIC values are the average of three experiments. Each bacteriocin was added to whole human blood to reach a concentration of 1 mg/ml. […] RT is short for room temperature.

Series [3] deals with E. faecalis D6 and E. faecalis MMH594. Description: Effect of autoclaving on antibacterial activity, E. faecalis. It is filed as cell-based, Enterococcus faecalis. The note with it: in MilliQ water with 0.1% TFA, standard autoclaving; MIC against E. faecalis D6 and MMH594. The text has this:
A pre-requisite for intravenous administration is complete sterility of the compound ([Paese et al., 2017]). The simplest manner to achieve this is through autoclaving. However, this can cause degradation of the compound and therefore be detrimental to the antibacterial effect. Also, if the compound is degraded into unknown constituents this may cause unintended interactions. Therefore, we exposed the bacteriocins to a standard autoclaving procedure.
Each bacteriocin was solved in MilliQ water with 0.1% TFA and then autoclaved. […] Strains: 20705 is short for E. faecium LMGT 20705; 0237 for E. faecium 42 ACA-D6 0237; D6 for E. faecalis D6; and MMH594 for E. faecalis MMH594.

In the next series the test system is human erythrocytes. In words: Haemolysis assay. The settings on record: 37°C. Here is the method: To assess the haemolytic effect whole blood was drawn from two healthy human volunteers, pooled and distributed in 1 ml aliquots. The aliquots were spun down at 1,000 × g for 5 min at 4°C to separate erythrocytes from plasma. The erythrocytes were washed three times with saline (0.9% NaCl) and resuspended in 100 μl saline. […] SDS in saline was added as a control, since bacteriocins were solved in saline. The samples were incubated at 37°C for 1 h and then spun down again to remove intact erythrocytes. The supernatant was measured for absorbance at 540 nm in order to measure degree of haemolysis. […] The experiment was repeated three times to allow for statistical analysis.
Whole human blood was mixed with each bacteriocin in saline to a final concentration of 1, 0.1, and 0.01 mg/ml. The samples were incubated at 37°C before the erythrocytes were spun down and the supernatant was read at OD540.

A further series relates to E. faecalis. The settings on record: MIC = at least 50% growth inhibition, three parallels. Here is the method:
Unless otherwise specified the bacterial strains were grown in brain heart infusion (BHI) medium (Oxoid) at 37°C under aerobic conditions without shaking.
The peptides were stored at −20°C until use. The amino acid sequences of the bacteriocins are […] RPVA and […] […] Bacteriocin activity was determined using a microtiter assay as previously described ([Holo et al., 1991]).

With “MLAKIKAMIKKFPNPYTLAAKLTTYEINWYKQQYGRYPWERPVA [EntEJ97, enterocin EJ97]”, in series [1], the “MIC against cells from resistant colonies” value is recorded as “above 25 μg/ml”. Besides, the “MIC in plasma after 8 h” value in series [2] (human plasma, 8 h incubation at 37°C, average of three experiments) is 0.78 µg/mL. Also, in series [2] (human plasma, 48 h incubation at 37°C, average of three experiments), the “MIC in plasma at 48 h” value turned out to be 1.56 µg/mL. Moreover, the “MIC in saline after 8 h” value in series [2] (saline, 8 h incubation at 37°C, average of three experiments) was determined as 0.39 µg/mL. Besides, the “MIC in saline at 48 h” value in series [2] (saline, 48 h incubation at 37°C, average of three experiments) came to 0.78 µg/mL. The “MIC in blood after 8 h” value in series [2] (whole human blood (EDTA), 1 mg/ml, 8 h incubation at 37°C, average of three experiments) is 1.56 µg/mL. The “MIC in blood at 48 h” value in series [2] (whole human blood (EDTA), 1 mg/ml, 48 h incubation at 37°C, average of three experiments) came out at 3.125 µg/mL. In addition, the “MIC in blood compared to saline (fold higher)” value in series [2] (whole human blood vs saline, 37°C) is given as 2 ×. Moreover, the “Effect of autoclaving on MIC” value in series [3] is listed as “did not affect”. Also, the “Visual haemolysis (redness of supernatant compared to saline)” value with human erythrocytes (1 mg/ml in saline) is on record as “did not cause haemolysis”. In the series on human erythrocytes (0.01, 0.1 and 1 mg/ml in saline, washed human erythrocytes (two volunteers, pooled), 1 h, supernatant absorbance 540 nm, repeated three times), the Haemolysis of erythrocytes entry is recorded as “non-haemolytic”. Also, the “MIC of EntEJ97” value with E. faecalis (strain 62 (L, laboratory)) amounted to 1.56 µg/mL; with E. faecalis (strain D6 (L, laboratory)), 0.39 µg/mL; in the series with E. faecalis (strain HH22 (N, nosocomial)) it was 1.56 µg/mL; in the series on E. faecalis (strain MMH594 (N, nosocomial)), 0.39 µg/mL; with E. faecalis (strain Merz96 (N, nosocomial)), 0.78 µg/mL; with E. faecalis (strain OG1RF (L, laboratory)), 0.78 µg/mL. Besides, the “MIC of EntEJ97” value with E. faecalis (strain Symbioflor (B, probiotic)) is 0.39 µg/mL; in the series on E. faecalis (strain T3 (N, nosocomial)), 0.39 µg/mL; with E. faecalis (strain TX0104 (N, nosocomial)) it was 0.39 µg/mL; in the series with E. faecalis (strain V583 (N, nosocomial; carries EntEJ97 immunity gene)), more than 25 µg/mL.
